# Measurements reported in US10758534B2 (Vertex Pharmaceuticals Incorporated, priority 2014, dated 2020).
# Biological target: T1, F508del (Homo sapiens, UniProt P13569, DEL508-508)
# T1 construct: expressed in transfected cells
# Assay: Protocol 2: FRET membrane potential optical assay (VIPR), identification of correction compounds
# Format: cell-based
# Conditions: F508del CFTR modulator activity; compounds of Table 1; read-out: EC30
# In short: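 NIH3T3 mouse fibroblasts stably expressing F508del-CFTR incubated with compound 16 h at 37 °C in serum-free medium, then loaded with CC2-DMPE/DiSBAC2(3) FRET dyes. Channel activated with 10 μM forskolin plus 20 μM genistein in Cl⁻-free (gluconate) bath; depolarisation from Cl⁻ efflux read on VIPR II.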
# T1 sequence (P13569 with tags, fused parts or gaps DEL508-508): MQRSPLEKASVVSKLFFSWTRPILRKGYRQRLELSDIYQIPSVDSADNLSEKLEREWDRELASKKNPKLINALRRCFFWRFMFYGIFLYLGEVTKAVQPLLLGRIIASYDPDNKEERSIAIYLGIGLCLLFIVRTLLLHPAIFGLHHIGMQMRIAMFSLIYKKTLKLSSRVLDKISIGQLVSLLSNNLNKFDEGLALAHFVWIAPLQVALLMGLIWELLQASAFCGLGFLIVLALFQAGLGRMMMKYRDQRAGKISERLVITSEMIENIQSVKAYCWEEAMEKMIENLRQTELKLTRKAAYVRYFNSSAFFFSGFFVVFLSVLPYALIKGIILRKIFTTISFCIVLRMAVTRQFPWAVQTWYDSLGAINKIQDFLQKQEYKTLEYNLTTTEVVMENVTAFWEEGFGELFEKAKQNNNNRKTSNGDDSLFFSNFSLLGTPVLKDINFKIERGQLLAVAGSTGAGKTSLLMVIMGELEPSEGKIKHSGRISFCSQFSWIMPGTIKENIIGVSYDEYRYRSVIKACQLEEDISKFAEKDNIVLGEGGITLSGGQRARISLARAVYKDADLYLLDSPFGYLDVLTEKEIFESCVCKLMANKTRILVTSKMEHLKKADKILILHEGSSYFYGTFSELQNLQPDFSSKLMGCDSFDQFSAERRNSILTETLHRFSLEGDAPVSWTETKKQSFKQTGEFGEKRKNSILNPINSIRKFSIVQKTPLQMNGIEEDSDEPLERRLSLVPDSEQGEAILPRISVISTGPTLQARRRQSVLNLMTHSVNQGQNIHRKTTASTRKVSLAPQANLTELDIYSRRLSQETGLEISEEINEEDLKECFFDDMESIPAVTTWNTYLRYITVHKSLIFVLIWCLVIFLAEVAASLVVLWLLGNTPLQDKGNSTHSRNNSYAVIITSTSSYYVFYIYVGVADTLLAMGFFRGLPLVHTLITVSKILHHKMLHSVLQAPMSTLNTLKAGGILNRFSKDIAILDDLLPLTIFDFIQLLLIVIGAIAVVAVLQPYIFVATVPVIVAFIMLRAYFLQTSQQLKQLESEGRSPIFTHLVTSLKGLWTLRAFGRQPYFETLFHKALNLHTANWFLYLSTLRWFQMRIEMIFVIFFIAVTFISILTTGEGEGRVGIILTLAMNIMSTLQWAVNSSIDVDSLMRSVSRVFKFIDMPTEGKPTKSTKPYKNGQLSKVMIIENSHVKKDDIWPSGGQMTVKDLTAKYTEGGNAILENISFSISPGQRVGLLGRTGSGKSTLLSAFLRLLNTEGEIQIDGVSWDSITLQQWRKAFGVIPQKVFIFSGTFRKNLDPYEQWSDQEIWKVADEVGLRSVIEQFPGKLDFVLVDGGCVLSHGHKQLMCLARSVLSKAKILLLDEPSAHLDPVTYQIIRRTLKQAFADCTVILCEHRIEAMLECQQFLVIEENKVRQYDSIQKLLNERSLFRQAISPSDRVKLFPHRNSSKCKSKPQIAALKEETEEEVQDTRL
row,EC30,SMILES
1,< 3 µM,"CC1CCCN(c2cccc(S(=O)(=O)NC(=O)c3cccnc3N3CC(C)CC3(C)C)n2)C1 (stereo not drawn) [Compound 2030, N—[[6-(3-methyl-1-piperidyl)-2-pyridyl]sulfonyl]-2-(2,2,4-trimethylpyrrolidin-1-yl)pyridine-3-carboxamide]"
2,< 3 µM,"COc1cccc(-c2cnc(N3CC(C)CC3(C)C)c(C(=O)NS(=O)(=O)c3cccc(N)n3)c2)c1 (stereo not drawn) [Compound 2031, N-[(6-amino-2-pyridyl)sulfonyl]-5-(3-methoxyphenyl)-2-(2,2,4-trimethylpyrrolidin-1-yl)pyridine-3-carboxamide]"
3,3 to 10 µM,"CC1CN(c2ncccc2C(=O)NS(=O)(=O)c2cccc(OCC3CCOCC3)n2)C(C)(C)C1 (stereo not drawn) [Compound 2032, N—[[6-(tetrahydropyran-4-ylmethoxy)-2-pyridyl]sulfonyl]-2-(2,2,4-trimethylpyrrolidin-1-yl)pyridine-3-carboxamide]"
4,< 3 µM,"COc1cccc(F)c1-c1ccc(C(=O)NS(=O)(=O)c2cccnc2N)c(N2C[C@@H](C)CC2(C)C)n1 [Compound 2033, N-[(2-amino-3-pyridyl)sulfonyl]-6-(2-fluoro-6-methoxy-phenyl)-2-[(4S)-2,2,4-trimethylpyrrolidin-1-yl]pyridine-3-carboxamide]"
5,< 3 µM,"Cc1ccc(O)c(-c2ccc(C(=O)NS(=O)(=O)c3cccc(N)n3)c(N3C[C@@H](C)CC3(C)C)n2)c1 [Compound 2034, N-[(6-amino-2-pyridyl)sulfonyl]-6-(2-hydroxy-5-methyl-phenyl)-2-[(4S)-2,2,4-trimethylpyrrolidin-1-yl]pyridine-3-carboxamide]"
6,< 3 µM,"C[C@@H]1CN(c2nc(-c3cc(F)c(F)cc3F)ccc2C(=O)NS(=O)(=O)c2cccnc2N)C(C)(C)C1 [Compound 2035, N-[(2-amino-3-pyridyl)sulfonyl]-6-(2,4,5-trifluorophenyl)-2-[(4S)-2,2,4-trimethylpyrrolidin-1-yl]pyridine-3-carboxamide]"
7,< 3 µM,"CC(C)Cc1ccn(-c2ccc(C(=O)NS(=O)(=O)c3cccnc3N)c(N3C[C@@H](C)CC3(C)C)n2)n1 [Compound 2036, N-[(2-amino-3-pyridyl)sulfonyl]-6-(3-isobutylpyrazol-1-yl)-2-[(4S)-2,2,4-trimethylpyrrolidin-1-yl]pyridine-3-carboxamide]"
8,< 3 µM,"Cc1ccc(-c2ccc(C(=O)NS(=O)(=O)c3ccc[nH]c3=O)c(N3C[C@@H](C)CC3(C)C)n2)c(C)c1 [Compound 2037, 6-(2,4-dimethylphenyl)-N-[(2-oxo-1H-pyridin-3-yl)sulfonyl]-2-[(4S)-2,2,4-trimethylpyrrolidin-1-yl]pyridine-3-carboxamide]"
9,< 3 µM,"CC1CN(c2ncccc2C(=O)NS(=O)(=O)c2cccc(OC3CCCC(C)(C)C3)n2)C(C)(C)C1 (stereo not drawn) [Compound 2038, N—[[6-(3,3-dimethylcyclohexoxy)-2-pyridyl]sulfonyl]-2-(2,2,4-trimethylpyrrolidin-1-yl)pyridine-3-carboxamide]"
10,< 3 µM,"C[C@@H]1CN(c2nc(-c3ccccc3C(F)(F)F)ccc2C(=O)NS(=O)(=O)c2cccnc2N)C(C)(C)C1 [Compound 2040, N-[(2-amino-3-pyridyl)sulfonyl]-6-[2-(trifluoromethyl)phenyl]-2-[(4S)-2,2,4-trimethylpyrrolidin-1-yl]pyridine-3-carboxamide]"
11,< 3 µM,"COc1ccc(Nc2cccc(S(=O)(=O)NC(=O)c3cccnc3N3CC(C)CC3(C)C)n2)cc1OC (stereo not drawn) [Compound 2041, N—[[6-(3,4-dimethoxyanilino)-2-pyridyl]sulfonyl]-2-(2,2,4-trimethylpyrrolidin-1-yl)pyridine-3-carboxamide]"
12,< 3 µM,"Cc1ccc(-c2ccc(C(=O)NS(=O)(=O)c3cccc(N)n3)c(N3C[C@@H](C)CC3(C)C)n2)c(O)c1 [Compound 2043, N-[(6-amino-2-pyridyl)sulfonyl]-6-(2-hydroxy-4-methyl-phenyl)-2-[(4S)-2,2,4-trimethylpyrrolidin-1-yl]pyridine-3-carboxamide]"
13,< 3 µM,"CC1CN(c2ncccc2C(=O)NS(=O)(=O)c2cccc(N(C)CC3CC3)n2)C(C)(C)C1 (stereo not drawn) [Compound 2044, N—[[6-[cyclopropylmethyl(methyl)amino]-2-pyridyl]sulfonyl]-2-(2,2,4-trimethylpyrrolidin-1-yl)pyridine-3-carboxamide]"
14,3 to 10 µM,"C[C@@H]1CN(c2nc(-c3ccccc3F)ccc2C(=O)NS(=O)(=O)N2CC[C@H](N)C2)C(C)(C)C1 [Compound 2045, N-[(3S)-3-aminopyrrolidin-1-yl]sulfonyl-6-(2-fluorophenyl)-2-[(4S)-2,2,4-trimethylpyrrolidin-1-yl]pyridine-3-carboxamide]"
15,< 3 µM,"C[C@@H]1CN(c2nc(-c3cc(F)ccc3O)ccc2C(=O)NS(=O)(=O)c2cccnc2N)C(C)(C)C1 [Compound 2046, N-[(2-amino-3-pyridyl)sulfonyl]-6-(5-fluoro-2-hydroxy-phenyl)-2-[(4S)-2,2,4-trimethylpyrrolidin-1-yl]pyridine-3-carboxamide]"
16,3 to 10 µM,"C[C@@H]1CN(c2nc(C3CC(C)(C)CCC3O)ccc2C(=O)NS(=O)(=O)c2cccnc2N)C(C)(C)C1 (stereo partly drawn) [Compound 2047, N-[(2-amino-3-pyridyl)sulfonyl]-6-(2-hydroxy-5,5-dimethyl-cyclohexyl)-2-[(4S)-2,2,4-trimethylpyrrolidin-1-yl]pyridine-3-carboxamide]"
17,< 3 µM,"C[C@@H]1CN(c2nc(-c3ccc(C(F)(F)F)cc3)ccc2C(=O)NS(=O)(=O)c2cccnc2N)C(C)(C)C1 [Compound 2048, N-[(2-amino-3-pyridyl)sulfonyl]-6-[4-(trifluoromethyl)phenyl]-2-[(4S)-2,2,4-trimethylpyrrolidin-1-yl]pyridine-3-carboxamide]"
18,< 3 µM,"CC1CN(c2ncccc2C(=O)NS(=O)(=O)c2cccc(NC(C)c3cccc4ccccc34)n2)C(C)(C)C1 (stereo not drawn) [Compound 2049, N—[[6-[1-(1-naphthyl)ethylamino]-2-pyridyl]sulfonyl]-2-(2,2,4-trimethylpyrrolidin-1-yl)pyridine-3-carboxamide]"
19,< 3 µM,"CCOc1ccccc1-c1ccc(C(=O)NS(=O)(=O)N2CC[C@H](N)C2)c(N2C[C@@H](C)CC2(C)C)n1 [Compound 2050, N-[(3S)-3-aminopyrrolidin-1-yl]sulfonyl-6-(2-ethoxyphenyl)-2-[(4S)-2,2,4-trimethylpyrrolidin-1-yl]pyridine-3-carboxamide]"
20,< 3 µM,"CCOc1ccc(F)cc1-c1ccc(C(=O)NS(=O)(=O)c2ccc[nH]c2=O)c(N2C[C@@H](C)CC2(C)C)n1 [Compound 2051, 6-(2-ethoxy-5-fluoro-phenyl)-N-[(2-oxo-1H-pyridin-3-yl)sulfonyl]-2-[(4S)-2,2,4-trimethylpyrrolidin-1-yl]pyridine-3-carboxamide]"
21,< 3 µM,"Cc1cc(-c2ccc(C(=O)NS(=O)(=O)c3cccnc3N)c(N3C[C@@H](C)CC3(C)C)n2)ccc1F [Compound 2052, N-[(2-amino-3-pyridyl)sulfonyl]-6-(4-fluoro-3-methyl-phenyl)-2-[(4S)-2,2,4-trimethylpyrrolidin-1-yl]pyridine-3-carboxamide]"
22,< 3 µM,"CC1CN(c2ncccc2C(=O)NS(=O)(=O)c2cccc(NC3CCCC3)n2)C(C)(C)C1 (stereo not drawn) [Compound 2053, N—[[6-(cyclopentylamino)-2-pyridyl]sulfonyl]-2-(2,2,4-trimethylpyrrolidin-1-yl)pyridine-3-carboxamide]"
23,< 3 µM,"C[C@@H]1CN(c2nc(-c3ccc4cc[nH]c4c3)ccc2C(=O)NS(=O)(=O)c2cccnc2N)C(C)(C)C1 [Compound 2054, N-[(2-amino-3-pyridyl)sulfonyl]-6-(1H-indol-6-yl)-2-[(4S)-2,2,4-trimethylpyrrolidin-1-yl]pyridine-3-carboxamide]"
24,< 3 µM,"CC1CN(c2ncccc2C(=O)NS(=O)(=O)c2cccc(N3CCCC3C(F)(F)F)n2)C(C)(C)C1 (stereo not drawn) [Compound 2055, N—[[6-[2-(trifluoromethyl)pyrrolidin-1-yl]-2-pyridyl]sulfonyl]-2-(2,2,4-trimethylpyrrolidin-1-yl)pyridine-3-carboxamide]"
25,3 to 10 µM,"C[C@@H]1CN(c2nc(O[C@H]3CCOC3)c(F)cc2C(=O)NS(=O)(=O)c2cccc(N)n2)C(C)(C)C1 [Compound 2056, N-[(6-amino-2-pyridyl)sulfonyl]-5-fluoro-6-[(3S)-tetrahydrofuran-3-yl]oxy-2-[(4S)-2,2,4-trimethylpyrrolidin-1-yl]pyridine-3-carboxamide]"
26,< 3 µM,"CC1CN(c2ncccc2C(=O)NS(=O)(=O)c2cccc(OC3CC4CCC3(C)C4(C)C)n2)C(C)(C)C1 (stereo not drawn) [Compound 2059, N—[[6-(1,7,7-trimethylnorbornan-2-yl)oxy-2-pyridyl]sulfonyl]-2-(2,2,4-trimethylpyrrolidin-1-yl)pyridine-3-carboxamide]"
27,< 3 µM,"CCOC(=O)c1cccc(Nc2cccc(S(=O)(=O)NC(=O)c3cccnc3N3CC(C)CC3(C)C)n2)c1 (stereo not drawn) [Compound 2060, ethyl 3-[[6-[[2-(2,2,4-trimethylpyrrolidin-1-yl)pyridine-3-carbonyl]sulfamoyl]-2-pyridyl]amino]benzoate]"
28,< 3 µM,"CC1CN(c2ncccc2C(=O)NS(=O)(=O)c2cccc(Oc3ccc(Cl)c(Cl)c3)n2)C(C)(C)C1 (stereo not drawn) [Compound 2061, N—[[6-(3,4-dichlorophenoxy)-2-pyridyl]sulfonyl]-2-(2,2,4-trimethylpyrrolidin-1-yl)pyridine-3-carboxamide]"

row,SMILES,EC30
1,"CC(C)COc1cc(F)cc(-c2ccc(C(=O)NS(=O)(=O)C3CCNC3)c(N3C[C@@H](C)CC3(C)C)n2)c1 (stereo partly drawn) [Compound 2042, 6-(3-fluoro-5-isobutoxy-phenyl)-N-pyrrolidin-3-ylsulfonyl-2-[(4S)-2,2,4-trimethylpyrrolidin-1-yl]pyridine-3-carboxamide]",< 3 µM
2,"CC1CN(c2ncccc2C(=O)NS(=O)(=O)c2cccc(OC3(C)CCCCCC3)n2)C(C)(C)C1 (stereo not drawn) [Compound 2057, N—[[6-(1-methylcycloheptoxy)-2-pyridyl]sulfonyl]-2-(2,2,4-trimethylpyrrolidin-1-yl)pyridine-3-carboxamide]",< 3 µM
